Test results: patent US10633389B2, “CARM1 inhibitors and uses thereof” (Epizyme, Inc., priority 2013, dated 2020)

Tests used:
human CARM1 (PRMT4) = human CARM1 (PRMT4) (Homo sapiens (Human), UniProt Q86X55); experiment: CARM1 enzyme assay on peptide substrate (3H-SAM Flashplate); details: Biochemical potencies, read-out: Biochem IC50
[1] = system: asymmetric di-methyl PABP1 in RKO cells; experiment: RKO methylation assay, In Cell Western (ICW) for asymmetric di-methyl PABP1; assay type: cell-based; details: Homo sapiens, RKO, Cellular potencies, ICW PABP1me2a
Outline: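 In-cell Western on fixed RKO cells after 48 h compound exposure: anti-asymmetric di-methyl PABP1 signal at 800 nm over DRAQ5 DNA signal at 700 nm. Percent inhibition set between DMSO wells and wells with 20 μM reference compound; IC50 curves fitted in triplicate.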

human CARM1 (PRMT4), sequence (Q86X55 other isoform, or with tags, fused parts or gaps isoform Q86X55-1): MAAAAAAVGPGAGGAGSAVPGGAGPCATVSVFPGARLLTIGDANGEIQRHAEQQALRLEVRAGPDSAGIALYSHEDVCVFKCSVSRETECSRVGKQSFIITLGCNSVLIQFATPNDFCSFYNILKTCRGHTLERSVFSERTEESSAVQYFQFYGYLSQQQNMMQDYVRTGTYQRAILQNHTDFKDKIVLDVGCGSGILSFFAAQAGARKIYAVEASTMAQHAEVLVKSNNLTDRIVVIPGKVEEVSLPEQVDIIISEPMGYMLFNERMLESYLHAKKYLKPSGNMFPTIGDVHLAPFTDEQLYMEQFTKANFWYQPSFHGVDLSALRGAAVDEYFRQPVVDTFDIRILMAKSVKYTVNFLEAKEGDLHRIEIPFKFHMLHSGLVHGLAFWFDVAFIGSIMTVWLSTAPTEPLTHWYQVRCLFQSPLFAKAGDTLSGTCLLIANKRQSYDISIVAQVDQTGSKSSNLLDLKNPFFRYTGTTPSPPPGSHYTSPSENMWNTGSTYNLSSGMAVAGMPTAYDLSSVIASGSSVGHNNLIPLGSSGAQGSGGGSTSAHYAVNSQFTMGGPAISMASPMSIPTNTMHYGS

| Structure (SMILES) | IC50 (human CARM1 (PRMT4)) [µM] | IC50 [1] [µM] |
| --- | --- | --- |
| CNCC(O)COc1cccc(-c2nc(-c3c(C)n[nH]c3C)cc(N(C)C3CCOCC3)n2)c1 (centres unmarked) [Example 534-1a] | 0.1 to 1 | 5 to 10 |
| CNCC(O)COc1cccc(-c2nc(N[C@@H]3CCOC3)c(C)c(-c3cnccn3)n2)c1 (some centres unmarked) [Example 451-1a] | 0.1 to 1 | 10 to 20 |
| CNCC(O)COc1cccc(-c2nc(C(=O)N(C)C)cc(N(C)C3CCOCC3)n2)c1 (centres unmarked) [Example 593-1a] | 0.1 to 1 | 10 to 20 |
| CNCC(O)COc1cccc(-c2nc(Nc3c(C)nn(C)c3C)cc(N(C)C3CCOCC3)n2)c1 (centres unmarked) [Example 555-1a] | 0.1 to 1 | 10 to 20 |
| CNCC(O)COc1cccc(-c2nc(-c3c(C)noc3C)c(C)c(N3CCO[C@@H](CO)C3)n2)c1 (some centres unmarked) [Example 123-1a] | 0.1 to 1 | 5 to 10 |
| CNCC(O)COc1cccc(-c2nc(NC3CCOCC3)c(C(F)F)c(-c3c(C)noc3C)n2)c1 (centres unmarked) [Example 214-1a] | 0.1 to 1 | 5 to 10 |
| CNC[C@@H](O)COc1ccc(F)c(-c2nc(-c3c(C)noc3C)c(C)c(-c3c(C)noc3C)n2)c1 [Example 78-3] | 0.1 to 1 | ≥ 20 |
| CNCC(O)COc1cccc(-c2nc(-c3c(C)noc3C)cc(N(C)C(C)=O)n2)c1 (centres unmarked) [Example 64-1a] | 0.1 to 1 | 10 to 20 |
| CNC[C@H](O)COc1ccc(F)c(-c2nc(-c3c(C)noc3C)c(C)c(-c3c(C)noc3C)n2)c1 [Example 81-3] | 1 to 3 | ≥ 20 |
| CNCC(O)COc1cccc(-c2nc(N[C@@H]3CCOC3)c(C)c(-c3c(C)nn(C)c3C)n2)c1 (some centres unmarked) [Example 354-1a] | 0.1 to 1 | 10 to 20 |
| CNCC(O)COc1cccc(-c2nc(NC(C)C3CCOCC3)cc(-c3c(C)noc3C)n2)c1 (centres unmarked) [Example 158-1a] | 0.1 to 1 | 5 to 10 |
| CNCC(O)COc1cccc(-c2nc(NC3CCOC3)c(C)c(C(=O)NC3CCOCC3)n2)c1 (centres unmarked) [Example 383-1a] | 1 to 3 | 10 to 20 |
| CNCC(O)COc1cccc(-c2nc(Nc3c(C)nn(C)c3C)cc(-c3c(C)noc3C)n2)c1 (centres unmarked) [Example 122-1a] | 1 to 3 | 10 to 20 |
| CNCC(O)COc1cccc(-c2nc(NC3CCOC3)c(C)c(C(=O)N(C)C3CCOCC3)n2)c1 (centres unmarked) [Example 402-1a] | 3 to 10 | 10 to 20 |
| CNCC(O)COc1cccc(-c2nc(N[C@@H]3CCOC3)c(C)c(-c3cccnc3F)n2)c1 (some centres unmarked) [Example 348-1a] | 0.1 to 1 | 10 to 20 |
| CNCC(O)COc1cccc(-c2nc(Nc3ncc(OC)cn3)cc(N(C)C3CCOCC3)n2)c1 (centres unmarked) [Example 551-1a] | 0.1 to 1 | 10 to 20 |

The remaining lines, values ahead:

| IC50 (human CARM1 (PRMT4)) [µM] | IC50 [1] [µM] | Structure (SMILES) |
| --- | --- | --- |
| 0.1 to 1 | ≥ 20 | CNCC(O)COc1cccc(-c2nc(N[C@@H]3CC[C@H](O)C3)c(C)c(N3CCOCC3)n2)c1 (some centres unmarked) [Example 687-1a] |
| 0.1 to 1 | ≥ 20 | CNCC(O)COc1cccc(-c2nc(NCCCN3CCCC3=O)cc(-c3cccc4ncccc34)n2)c1 (centres unmarked) [Example 648-1a] |
| 0.1 to 1 | 10 to 20 | CNCC(O)COc1cccc(-c2nc(C(=O)N(C)C3CCOCC3)cc(N(C)C3CCOCC3)n2)c1 (centres unmarked) [Example 602-1a] |
| 3 to 10 | 10 to 20 | CNCC(O)COc1cc(Cl)cc(-c2nc(C(=O)O)cc(N(C)C3CCOCC3)n2)c1 (centres unmarked) [Example 608-1a] |
| 0.1 to 1 | ≥ 20 | CNCC(O)COc1cccc(-c2nc(NCC(F)(F)F)cc(-c3ccc(S(C)(=O)=O)cc3)n2)c1 (centres unmarked) [Example 627-1a] |
| 0.1 to 1 | 10 to 20 | CNCC(O)COc1cccc(-c2nc(N[C@H]3C[C@@H](O)C3)cc(N(C)C3CCOCC3)n2)c1 (some centres unmarked) [Example 599-1a] |
| 0.1 to 1 | 10 to 20 | CNCC(O)COc1cc(Cl)cc(-c2nc(-c3c[nH]c4ccccc34)c(C)c(N(C)C3CCOCC3)n2)c1 (centres unmarked) [Example 625-1a] |
| 0.1 to 1 | ≥ 20 | CNCC(O)COc1cccc(-c2nc(C3=CCCC3)cc(C(CCOC)CCOC)n2)c1 (centres unmarked) [Example 651-1a] |
| 1 to 3 | ≥ 20 | CNCC(O)COc1cccc(-c2nc(NC3CCOCC3)c(C)c(N3CCN(C(C)=O)CC3)n2)c1 (centres unmarked) [Example 643-1a] |
